Where “and” joins values, the source holds several entries; their conditions need not be identical. Equal values may be shown once. Read-outs that look alike come from different tables or passages of the source.
Key:
MeV = assay: Synergy analysis ERDRP-0519 and GHP-88309, antiviral; type: cell-based; conditions: ERDRP519 0.00 µM

In the case of `NC(=O)c1c(F)cccc1-c1cccc2cnccc12` [GHP88309], the “S4 A antiviral matrix, normalized value” (MeV; GHP88309 0.03 µM) is reported as 100.00, the “S4 A antiviral matrix, normalized value” (MeV; GHP88309 0.08 µM) is reported as 78.32 and 88.03 and 100.19 and 97.70 and the “S4 A antiviral matrix, normalized value” (MeV; GHP88309 0.74 µM) is reported as 50.86 and 41.77 and 80.59 and 41.41. The “S4 A antiviral matrix, normalized value” (MeV; GHP88309 2.22 µM) was 14.61 and 17.48 and 22.13 and 11.92, the “S4 B cytotoxicity matrix, normalized value” (Vero-hSLAM cells) was 100.00 and the “S4 B cytotoxicity matrix, normalized value” (Vero-hSLAM cells; ERDRP519 0.00 µM, GHP88309 0.27 µM) was 99.90. The “S4 B cytotoxicity matrix, normalized value” (Vero-hSLAM cells; ERDRP519 0.00 µM, GHP88309 0.82 µM) was 99.44 and 91.52, the “S4 B cytotoxicity matrix, normalized value” (Vero-hSLAM cells; ERDRP519 0.00 µM, GHP88309 7.41 µM) was 97.69 and the “S4 B cytotoxicity matrix, normalized value” (Vero-hSLAM cells; ERDRP519 0.00 µM, GHP88309 66.67 µM) was 98.85 and 98.57. The “S4 B cytotoxicity matrix, normalized value” (Vero-hSLAM cells; ERDRP519 0.00 µM, GHP88309 200.00 µM) was 92.50 and 87.59 and 94.52.
